Laboratory results reported in US6900191B1, “1α-Hydroxyvitamin D5, its synthesis and use in cancer prevention” (OncQuest, Inc., priority 1997, dated 2005).
“Also recorded” adds a separate entry of the source.

Assays:
[1] = tested on: 7,12-dimethylbenz[a]anthracene-induced lesions in BALB/c mouse mammary glands; assay: DMBA-induced mammary lesions in mouse mammary gland organ culture; assay type: cell-based; details: for No. of glands with lesions/total No. of glands treated: 10 days in culture; for % incidence of lesions: control 60.0; for number of glands exhibiting lesions / lesion formation, dependence on concentration: 0.01 μM to 10.0 μM
Experimental: Young, virgin BALB/c female mice, 3-4 weeks of age, were obtained from Charles River Laboratories, Wilmington, Mass. The mice were pretreated for 9 days with 17β-estradiol (1 μg in 0.1 mL saline per animal) and progesterone (1 mg in 0.1 mL saline per animal). They were then killed by cervical dislocation, and the thoracic pair of mammary glands was dissected out on silk rafts and incubated for 10 days in Waymouth MB752 medium (Life Technologies, Inc. [GIBCO BRL], Gauthersburg, Md.) containing the following growth-promoting hormones: insulin (5 μg/mL), prolactin (5 μg/mL), aldosterone (1 μg/mL), and hydrocortisone (1 μg/mL).
The carcinogen 7,12-dimethylbenz [a] anthracene (DMBA) at a dose of 2 μg/mL was added to the medium on day 3 for 24 hours to induce mammary lesions. The DMBA-containing medium was then removed, and the mammary glands were incubated for an additional 14 days with medium containing only insulin. […] These structures were termed “mammary lesions.”
The vitamin D analogues (ranging in concentration from 0.01 μM to 10.0 μM) were included in the medium during the first 10 days of the in vitro culture to determine if they lowered the incidence of mammary lesion formation. Throughout the culture period, the glands were maintained at 37° C. in an environment of 95% air and 5% CO2. At the end of the culture period, the glands were fixed in formalin, stained in alum-carmine solution, and evaluated for the presence or absence of mammary lesions. All hormones and chemicals were purchased from the Sigma Chemical Co., St. Louis, Mo. • 4. Immunohistochemistry Of VDRs And TGF-β1
To evaluate the efficacy of the newly synthesized vitamin D5 analogue in preventing mammary lesion formation, we incubated 15 mammary glands per group (135 glands in total) from BALB/c mice with appropriate hormones and exposed the glands to DMBA on day 3 for 24 hours (see “Experimental Equipment and Methods” section). The mammary glands were incubated for 10 days with the vitamin D analogues in concentrations ranging from 0.01 μM to 10.0 μM. The incidence of mammary lesions was calculated for each group and was reported as the ratio of the number of mammary glands showing lesions to the total number of mammary glands at risk.

TGF-β1 = assay: Immunohistochemistry of TGF-β1 in normal mouse mammary glands; assay type: cell-based; details: 1.0 μM, 3 days
Experimental: (§1) Normal mouse mammary glands were dissected and incubated with growth-promoting hormones either alone or in the presence of vitamin D analogues for only 3 days. In this experiment, the glands were not exposed to DMBA (see protocol described in the previous section). Instead, the glands were fixed in buffered formalin, and 5-μm-thick sections were prepared for histopathologic evaluations. The sections were mounted on adhesive-coated slides (Superfast: Fisher Scientific Co., Itasca, Ill.), dried at 60° C. for 1 hour, deparaffinized in xylene, […] in a series of alcohol, and finally washed with phosphate-buffered saline (PBS).
(§2) To block the nonspecific antibody reactions, we treated the tissue sections with 5% dried skim milk for 10 minutes and then incubated them with primary mouse antibody (either against VDR or against TGF-β1, both obtained from BioGenex Laboratories, San Ramon, Calif.) overnight at 0-4° C. […]
(§3) The tissues were counterstained with hematoxylin-eosin, dehydrated through graded series of alcohol and xylene, and finally mounted in Permount (Fisher Scientific Co.). Slides were evaluated for the presence or absence of the VDR or TGF-β1 and for the intensity of staining in the positively strained samples. • 5. […]

[2] = Stability studies on storage; assay type: physicochemical; details: 20° C.
[3] = Calcemic activity: plasma calcium levels in vitamin D-deficient rats; assay type: in vivo, rat; details: for increase in plasma calcium over vehicle-treated control group: 0.042 μg/kg per day; for increase in plasma calcium level compared with vehicle-treated rats: higher concentration, 0.25 μg/kg per day; for Plasma calcium: vitamin D-deficient rats, means +/− standard deviation
Experimental: Three-week-old Sprangue-Dawley male rats were obtained from the Holtzman Laboratory, Madison, Wis. Up to three rats were housed together in a polycarbonate cage. The animal cages were kept under yellow light. The rats (eight to 10 per group per concentration of both vitamin D analogues used) were fed a vitamin D-free diet containing 0.47 g/100 g calcium and 0.3 g/100 g phosphorus. After the rats had consumed this diet for 3 weeks, their plasma calcium levels were measured. […] Such rats were administered appropriate vitamin D analogues intragastrically for 14 days. At the end of this period, the plasma calcium levels were again measured. • 3. Induction Of Preneoplastic Lesions In Mammary Glands And Their Prevention By Vitamin D3 and D5 Analogues

mammary glands = assay: Toxic effects and structural differentiation of mammary glands in organ culture; assay type: cell-based, mouse; details: for toxicity to mammary glands, gland structure: 3 days; for toxicity to the glands, overall: 0.1 μM or 1.0 μM tested
Experimental: as §1
To determine the effects of vitamin D analogues on the structural differentiation as well as their toxic effects on mammary glands, we incubated mammary glands with growth-promoting hormones for 3 days either alone or in the presence of 0.1 μM or 1.0 μM vitamin D analogues. The control mammary gland structure was represented by normal alveolar and ductal structures.

[4] = tested on: HL-60 human leukemia cells; details: cited from earlier work
ZR 75 = assay: Growth of human breast cancer cell line; assay type: cell-based
BCA-4 = assay: Growth of human breast cancer cell line; assay type: cell-based
VDR = assay: Immunohistochemistry of VDRs in normal mouse mammary glands; assay type: cell-based; details: 3 days
Experimental: as §1, §2, §3

T47D = assay: Growth of human breast cancer cell line; assay type: cell-based
breast cancer cells [5] = assay: Growth of analogue-differentiated breast cancer cells transplanted in athymic mice; assay type: in vivo, mouse; details: cells differentiated with the analogue before transplantation
MCF-7 = assay: Growth of human breast cancer cell line; assay type: cell-based
breast cancer cells [6] = assay: Growth of breast cancer cells in athymic mice injected with the analogue; assay type: in vivo, mouse; details: injection of 8 mg, 3 × week/2 months, athymic mice bearing breast cancer cells
MCF1Oneo = assay: Growth of human breast cancer cell line; assay type: cell-based
[7] = 0.042 μg/kg/day intragastrically for 14 days
[8] = 0.25 μg/kg/day intragastrically for 14 days

SMILES | No. of glands with lesions/total No. of glands treated ([1]; 0.01 μM) | % incidence of lesions ([1]; 0.01 μM) [%] | No. of glands with lesions/total No. of glands treated ([1]; 0.1 μM) | % incidence of lesions ([1]; 0.1 μM) [%] | No. of glands with lesions/total No. of glands treated ([1]; 1.0 μM) | % incidence of lesions ([1]; 1.0 μM) [%] | No. of glands with lesions/total No. of glands treated ([1]; 10.0 μM) | % incidence of lesions ([1]; 10.0 μM) [%] | stability in solution [2] | storage stability in powder form [2] | increase in plasma calcium over vehicle-treated control group [3] [%] | increase in plasma calcium level compared with vehicle-treated rats [3] [%] | Plasma calcium [3, 7] [mg/dL] | Plasma calcium [3, 8] [mg/dL] | toxicity to mammary glands, gland structure (mammary glands; 1.0 μM) | also measured
C=C1/C(=C\C=C2/CCC[C@]3(C)[C@@H]([C@H](C)CCCC(C)(C)O)CC[C@@H]23)C[C@@H](O)C[C@@H]1O [1α,25(OH)2D3, 1α,25-dihydroxyvitamin D3, reference compound] | two of 14 | 14.3 | 0/15 | 0.0 | 0/15 | 0.0 | 0/15 | 0.0 | one month | a year | 50 | 87 | 8.1 ± 1.2 | 10.1 ± 1.8 | disintegration of ducts and structural toxicity to the glands | No. of glands with lesions/total No. of glands treated ([1]; 0.01 μM, listed as 1,25α-dihydroxyvitamin D3): 2/14; mammary lesions ([1]; concentrations higher than 0.01 μM): no mammary lesions were observed; induction of TGF-β1 in mammary epithelial cells (TGF-β1): much reduced; Plasma calcium ([3]; 0.042 μg/kg/day intragastrically for 14 days, listed as 1α, 25(OH)2D3): 8.1 ± 1.2 mg/dL; Plasma calcium ([3]; 0.25 μg/kg/day intragastrically for 14 days, listed as 1α, 25 (OH)2D3): 10.1 ± 1.8 mg/dL; toxicity to mammary glands, gland structure (mammary glands; 0.1 μM): did not show toxicity; concentrations toxic to the glands (mammary glands; 3 days in organ culture): ≥ 1000 nM
C=C1/C(=C/C=C2\CCC[C@]3(C)C([C@H](C)CC#CC(O)(C(F)(F)F)C(F)(F)F)=CC[C@@H]23)C[C@@H](O)C[C@@H]1O [Ro24-5531, 1α, 25-dihydroxy-16-ene-23-yne-26,27-hexafluorocholecalciferol] | – | – | – | – | – | – | – | – | – | – | – | – | – | – | – | expression of TGF-β1 and its type 2 receptors [4]: induced expression
C=C1/C(=C\C=C2/CCC[C@]3(C)[C@@H]([C@H](C)CC[C@@H](CC)C(C)C)CC[C@@H]23)C[C@@H](O)C[C@@H]1O [1α(OH)D5, 1α-Hydroxyvitamin D5] | 6/16 | 37.5 | 4/16 | 25.0 | 2/14 | 14.3 | 0/15 | 0.0 | one month | a year | 11 | 50 | 6.0 ± 0.63 | 7.9 ± 1.5 | retained the healthy structural characteristics | number of glands exhibiting lesions / lesion formation, dependence on concentration [1]: dose-related decrease; number of glands exhibiting lesions / lesion formation, dependence on concentration ([1]; listed as vitamin D5 analogue): inhibited the lesion formation in a dose-dependent manner; percent inhibition of formation of lesions ([1]; 10.0 μM): 100%; growth of cell line (ZR 75): inhibited growth; growth of cell line (BCA-4): inhibited growth; expression of VDRs (staining) in mammary epithelial cells (VDR; 0.1 μM (lower concentration)): much less; expression of VDRs (staining) in mammary epithelial cells (VDR; 1.0 μM): induced expression of VDRs; growth of cell line (T47D): inhibited growth; growth of differentiated cells when transplanted in athymic mice (breast cancer cells [5]): did not grow; growth of cell line (MCF-7): inhibited growth; calcemic effects compared with 1α,25(OH)2D3 ([3]; overall, both doses): overall lower calcemic effects; also recorded: much less calcemic; growth of cancer cells in the animals (breast cancer cells [6]): inhibited growth; toxicity to the glands, overall (mammary glands): did not result in any toxicity; toxicity to the glands, overall (mammary glands; listed as vitamin D5 analogue): considerably less toxic than the vitamin D3 analogue; growth of cell line (MCF1Oneo): inhibited growth
